{
  "source": "patent US20180214393A1",
  "about": "“METHODS FOR TREATING CANCER” (RADIUS PHARMACEUTICALS, INC., priority 2015, published 2018)",
  "key": {"[1]": {"system": "PDx-4 models", "experiment": "Proliferation marker Ki67 in PDx-4 tumors", "type": "in vivo, mice", "conditions": "30, 60 or 120 mg/kg p.o. q.d., four hours after final dose of 56 day study, vs fulvestrant 1 mg/animal qwk"}, "[2]": {"system": "uterine tissue", "experiment": "Assessment of uterotropic activity in immature rats", "type": "in vivo, Sprague-Dawley rats", "procedure": "Twenty-four hours after the final dose, all animals were euthanized by carbon dioxide inhalation. Body weights and wet uterine weights were recorded for each animal. […] Fresh uterine tissue from each rat was fixed in 4% paraformaldehyde, dehydrated with ethanol, and embedded into JB4 plastic resin. […] Thickness of the endometrial epithelium was measured using a Zeiss Axioskop 40 microscope using the Spot Advanced program; the mean of 9 measurements per specimen was calculated."}, "[3]": {"system": "ovariectomized rats", "experiment": "Femur microarchitecture in ovariectomized rats (micro-CT)", "type": "in vivo, Sprague-Dawley rats", "conditions": "after 4 weeks", "procedure": "As a model of postmenopausal bone loss, ovariectomy was performed on anesthetized adult female Sprague-Dawley rats, with sham surgery as a control. […] Animals in the sham surgery group were vehicle treated. All animals were euthanized by carbon dioxide inhalation 24 hours after the final dose. Bone mineral density was assessed at baseline and again after 4 weeks of treatment using PIXImus dual emission x-ray absorptiometry.\nAt necropsy, the left femur of each animal was removed, dissected free of soft tissue and stored in 70% ethanol before analysis. A detailed qualitative and quantitative 3-D evaluation was performed using a micro-CT40 system (Scanco Systems, Wayne, Pa.). For each specimen, 250 image slices of the distal femur metaphysis were acquired. Morphometric parameters were determined using a direct 3-D approach in pre-selected analysis regions. Parameters determined in the trabecular bone included bone volume density, bone surface density, trabecular number, trabecular thickness, trabecular spacing, connectivity density, and apparent bone density."}, "[4]": {"conditions": "in combination with E2 0.01 mg/kg"}},
  "note": "Structures can show the parent of a compound that is named as a salt.",
  "data": [
    {"smiles": "CCNCCc1ccc(CN(CC)c2cc(OC)ccc2[C@@H]2CCc3cc(O)ccc3C2)cc1", "note": "[RAD1901, (6R)-6-(2-(N-(4-(2-(ethylamino)ethyl)benzyl)-N-ethylamino)-4-methoxyphenyl)-5,6,7,8-tetrahydronaphthalen-2-ol dihydrochloride]", "values": [
      {"measurement": "proliferation marker Ki67", "setting": "[1]", "value": "rapid decrease of the proliferation marker Ki67"},
      {"measurement": "uterine wet weight vs vehicle", "setting": "[2]; E2 0.01, raloxifene 3, tamoxifen 1, RAD1901 0.3-100 mg/kg, once daily 3 days", "value": "did not significantly affect uterine wet weight"},
      {"measurement": "endometrial epithelial thickness", "setting": "[2]; E2 0.01 and 0.3, tamoxifen 1, raloxifene 3, RAD1901 up to 100 mg/kg", "value": "did not increase endometrial epithelial thickness"},
      {"measurement": "dose with complete inhibition of E2-mediated uterotropic activity", "setting": "[2]; [4]", "value": 3, "unit": "mg/kg"},
      {"measurement": "doses with significant inhibition of E2-mediated uterotropic activity", "setting": "[2]; [4]", "value": "≥ 0.1", "unit": "mg/kg"},
      {"measurement": "trabecular architecture", "setting": "[3]", "value": "significant preservation of trabecular architecture"}
    ]}
  ]
}
